In patent US9527850B2, “Benzyl piperidine compounds as lysophosphatidic acid (LPA) receptor antagonist” (Merck Patent GmbH, priority 2011, dated 2016):

Biological target: T1, LPA2 receptor (LPA2R) (Homo sapiens, UniProt Q9HBW0)
T1 construct: expressed in transfected cells; host or cells: U2OS
Test: LPA2R-Calciumflux assay (intracellular calcium mobilisation, FLIPR)
Assay type: cell-based
Conditions: U2OS cells recombinant expressing LPA2R; inhibition of LPA-induced Ca-flux; 10 concentrations 30 uM to 1 nM, 1% DMSO
From the text: The assay detects intra cellular calcium which is generated by cells upon activation of the LPA2 receptor by its ligand LPA. This transient calcium mobilization can be monitored using a commercial calcium detection kit (e.g. from Molecular Devices). The main component of such a kit is a dye, which becomes fluorescent when calcium is present—a transient fluorescence signal after laddition of a ligand to a test well are the result. Readers like the FLIPR (Molecular Devices) can be used to monitor such transient “Ca-flux” signals.
The signals are calculated according to peak maximum minus base line.
The assay is performed in microplates (384 wells per plate).
LPA2R-Calciumflux Assay Protocol
The assay is run according to the following procedure: • 50 uL seed cells (10000 cells/well in DMEM buffer) • Incubate 24 h at 37° C., 10% CO2 • aspirate medium • 50 uL add calcium dye 1×HBSS/HEPES buffer • incubate 1 h at 37° C. (“loading”) • equilibrate 10 min at RT • 5 uL add compounds in HEPES buffer • shake 10 sec. at 1000 rpm • incubate 15 min at RT • 20 uL add LPA (in the FLIPR Tetra) in Krebs-buffer/BSA & measurement
The cells are seeded in DMEM buffer (DMEM, 10% FCS, 10 mM HEPES, 1% Pen/Strep).
Dye loading is done in HBSS/HEPES buffer (100 mL 10×HBSS+20 mL 1M HEPES+880 mL water, pH 7.4)
The LPA is added in Krebs/BSA buffer (120 mM NaCl, 5 mM KCl, 0.62 mM MgSO4, 1.8 mM CaCl2, 10 mM HEPES, 6 mM D(+)-Glucose, 0.2% BSA, pH 7.4).
The compounds are pre-diluted in HEPES buffer (20 mM, pH 7.4), whereby the final DMSO content in the assay is kept at 1%. The compounds are pre-diluted in order to generate dose response series on the microplates. The dose response series consist of 10 concentrations for each compound from 30 uM final to 1 nM final. From all compound wells the resulting signals are referred to control wells (located on each plate besides the compound wells) in terms of % activity.
From these % activity values—along with the corresponding compound concentrations—IC50 values are fitted for each compound using standard fitting programs such as Graphpad Prism. Here the method “log(inhibitor) vs. response—Variable slope” is used.

T1 sequence (Q9HBW0 whole entry): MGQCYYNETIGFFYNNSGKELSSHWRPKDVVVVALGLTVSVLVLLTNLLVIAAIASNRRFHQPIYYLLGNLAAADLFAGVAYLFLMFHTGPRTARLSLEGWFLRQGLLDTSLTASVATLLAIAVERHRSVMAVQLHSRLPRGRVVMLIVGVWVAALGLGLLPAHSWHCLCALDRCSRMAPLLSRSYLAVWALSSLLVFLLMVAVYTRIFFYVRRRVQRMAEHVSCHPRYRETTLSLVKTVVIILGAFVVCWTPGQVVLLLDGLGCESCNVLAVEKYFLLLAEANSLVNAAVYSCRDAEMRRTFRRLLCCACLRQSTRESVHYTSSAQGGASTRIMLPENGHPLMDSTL

Row | SMILES | IC50 [nM]
1 | CC(c1ccccc1)N1CCCCC1c1nc2cc(F)ccc2[nH]1 (centres unmarked) [compound 101, 5-Fluoro-2-[1-(1-phenyl-ethyl)-piperidin-2-yl]-1H-benzo-imidazole] | 500 to 5000
2 | Fc1ccc2[nH]c(C3CCCCN3Cc3ccccc3)nc2c1 (centres unmarked) [compound 102, 2-(1-Benzyl-piperidin-2-yl)-5-fluoro-1H-benzo-imidazole] | 500 to 5000
3 | Cc1ccc(CN2CCCCC2c2nc3cc(F)ccc3n2C)cc1C (centres unmarked) [compound 103, 2-[1-(3,4-Dimethyl-benzyl)-piperidin-2-yl]-5-fluoro-1-methyl-1H-benzo-imidazole] | 500 to 5000
4 | Fc1ccc2[nH]c(C3CCCCN3CCc3ccccc3)nc2c1 (centres unmarked) [compound 104, 5-Fluoro-2-(1-phenethyl-piperidin-2-yl)-1H-benzo-imidazole] | 500 to 5000
5 | Cc1ccc(CN2CCCCC2c2nc3cc(Cl)cc(C)c3[nH]2)cc1C (centres unmarked) [compound 105] | 500 to 5000
6 | Fc1ccc(CCN2CCCCC2c2cc3cc(F)ccc3[nH]2)cc1 (centres unmarked) [compound 111, 5-Fluoro-2-{1-[2-(4-fluoro-phenyl)-ethyl]-piperidin-2-yl}-1H-indole] | 500 to 5000
7 | Cc1cc2nc(C3CCCCN3Cc3ccc4c(c3)C(C)(C)CCC4(C)C)[nH]c2cc1Cl (centres unmarked) [compound 113, 6-Chloro-5-methyl-2-[1-(5,5,8,8-tetramethyl-5,6,7,8-tetrahydro-naphthalen-2-ylmethyl)-piperidin-2-yl]-1H-benzo-imidazole] | 500 to 5000
8 | NS(=O)(=O)c1ccc2nc(C3CCCCN3Cc3cccc(C(F)(F)F)c3)[nH]c2c1 (centres unmarked) [compound 115] | 500 to 5000
9 | Cc1ccc(CN2CCCCC2c2nc3ccc(S(N)(=O)=O)cc3[nH]2)cc1C(F)(F)F (centres unmarked) [compound 117] | 500 to 5000
10 | CC1(C)CCC(C)(C)c2cc(CN3CCCCC3c3nc4ccc(S(N)(=O)=O)cc4[nH]3)ccc21 (centres unmarked) [compound 118, 2-[1-(5,5,8,8-Tetramethyl-5,6,7,8-tetrahydro-naphthalen-2-ylmethyl)-piperidin-2-yl]-3H-benzo-imidazole-5-sulfonic acid amide] | 500 to 5000
11 | Fc1ccc2[nH]c(C3CCCCN3Cc3csc(Cl)n3)nc2c1 (centres unmarked) [compound 122, 2-[1-(2-Chloro-thiazol-4-ylmethyl)-piperidin-2-yl]-5-fluoro-1H-benzo-imidazole] | 500 to 5000
12 | Cc1nc(CN2CCCCC2c2nc3cc(F)ccc3[nH]2)cs1 (centres unmarked) [compound 123] | 500 to 5000
13 | Fc1ccc(CN2CCCC[C@H]2c2cc3ccccc3[nH]2)cc1 [compound 124, 2-[(S)-1-(4-Fluoro-benzyl)-piperidin-2-yl]-1H-indole] | 500 to 5000
14 | Cc1cc2nc(C3CCCCN3Cc3ccc(C)c(C(F)(F)F)c3)[nH]c2cc1Cl (centres unmarked) [compound 127] | 500 to 5000
15 | Fc1ccc(CN2CCCC[C@H]2c2nc3cc(F)ccc3[nH]2)cc1 [compound 131, 5-Fluoro-2-[(S)-1-(4-fluoro-benzyl)-piperidin-2-yl]-1H-benzo-imidazole] | 500 to 5000
16 | Fc1ccc(CCCN2CCCCC2c2cc3cc(F)ccc3[nH]2)cc1 (centres unmarked) [compound 132, 5-Fluoro-2-{1-[3-(4-fluoro-phenyl)-propyl)-piperidin-2-yl}-1H-indole] | 5000 to 15000
17 | Fc1ccc(CN2CCCCC2c2nc3nccnc3[nH]2)cc1 (centres unmarked) [compound 133, 2-[1-(4-Fluoro-benzyl)-piperidin-2-yl]-1H-imidazo[4,5-b]pyrazine] | 5000 to 15000
18 | Cc1ccc(CN2CCC3C[C@]32c2nc3cc(F)ccc3[nH]2)cc1C (stereo partly drawn) [compound 135, 2-[(R)-2-(3,4-Dimethyl-benzyl)-2-aza-bicyclo-[3.1.0]hex-1-yl]-5-fluoro-1H-benzo-imidazole] | 5000 to 15000

Continued, values first:

Row | IC50 [nM] | SMILES
19 | < 500 | Cc1ccc(CN2CCCCC2c2nc3ccc(Br)cc3[nH]2)cc1C (centres unmarked) [compound 96, 6-Bromo-2-[1-(3,4-dimethyl-benzyl)-piperidin-2-yl]-1H-benzo-imidazole]
20 | 500 to 5000 | Cc1cc(Cl)cc2nc(C3CCCCN3Cc3ccc4c(c3)C(C)(C)CCC4(C)C)[nH]c12 (centres unmarked) [compound 97, 5-Chloro-7-methyl-2-[1-(5,5,8,8-tetramethyl-5,6,7,8-tetrahydro-naphthalen-2-ylmethyl)-piperidin-2-yl]-1H-benzo-imidazole]
21 | 500 to 5000 | Cc1cc(Cl)cc2nc(C3CCCCN3Cc3cccc(C(F)(F)F)c3)[nH]c12 (centres unmarked) [compound 98]
22 | 500 to 5000 | Cc1cccc(CN2CCCCC2c2nc3cc(Cl)cc(C)c3[nH]2)c1 (centres unmarked) [compound 99, 5-Chloro-7-methyl-2-[1-(3-methyl-benzyl)-piperidin-2-yl]-1H-benzo-imidazole]
23 | < 500 | Cc1ccc(CN2CCCCC2c2nc3cccc(C)c3[nH]2)cc1C (centres unmarked) [compound 100, 2-[1-(3,4-Dimethyl-benzyl)-piperidin-2-yl]-7-methyl-1H-benzo-imidazole]
24 | < 500 | Cc1cccc(CN2CCCCC2c2nc3cc(C)c(Cl)cc3[nH]2)c1 (centres unmarked) [compound 106, 6-Chloro-5-methyl-2-[1-(3-methyl-benzyl)-piperidin-2-yl]-1H-benzo-imidazole]
25 | < 500 | COc1ccc(CN2CCCCC2c2cc3cc(F)ccc3[nH]2)cc1 (centres unmarked) [compound 107, 5-Fluoro-2-[1-(4-methoxy-benzyl)-piperidin-2-yl]-1H-indole]
26 | < 500 | Cc1ccc(CN2CCCCC2c2cc3cc(F)ccc3[nH]2)cc1 (centres unmarked) [compound 108, 5-Fluoro2-[1-(4-methyl-benzyl)-piperidin-2-yl]-1H-indole]
27 | < 500 | COc1cccc(CN2CCCCC2c2cc3cc(F)ccc3[nH]2)c1 (centres unmarked) [compound 109, 5-Fluoro-2-[1-(3-methoxy-benzyl)-piperidin-2-yl]-1H-indole]
28 | < 500 | Cn1nc(CN2CCCCC2c2cc3cc(F)ccc3[nH]2)c2ccccc21 (centres unmarked) [compound 110, 3-[2-(5-Fluoro-1H-indol-2-yl)-piperidin-1-ylmethyl]-1-methyl-1H-indazole]
29 | < 500 | Fc1ccc(CN2CCCCC2c2cc3cc(F)ccc3[nH]2)c(F)c1 (centres unmarked) [compound 112, 2-[1-(2,4-Difluoro-benzyl)-piperidin-2-yl]-5-fluoro-1H-indole]
30 | < 500 | Cc1ccc(CN2CCCCC2c2nc3cc(C)c(Cl)cc3[nH]2)cc1C (centres unmarked) [compound 114, 6-Chloro-2-[1-(3,4-dimethyl-benzyl)-piperidin-2-yl]-5-methyl-1H-benzo-imidazole]
31 | < 500 | Cc1ccc(CN2CCCCC2c2nc3ccc(S(N)(=O)=O)cc3[nH]2)cc1C (centres unmarked) [compound 116, 2-[1-(3,4-Dimethyl-benzyl)-piperidin-2-yl]-3H-benzo-imidazole-5-sulfonic acid amide]
32 | < 500 | Cc1ccc(CN2CCCC[C@@H]2c2nc3cc(F)ccc3[nH]2)cc1C [compound 119, 2-[(R)-1-(3,4-Dimethyl-benzyl)-piperidin-2-yl]-5-fluoro-1H-benzo-imidazole]
33 | < 500 | Fc1ccc(CN2CCCCC2c2nc3cc(Cl)cnc3[nH]2)cc1 (centres unmarked) [compound 120, 6-Chloro-2-[1-(4-fluoro-benzyl)-piperidin-2-yl]-3H-imidazo[4,5-b]pyridine]
34 | < 500 | CCc1nc(CN2CCCCC2c2nc3cc(F)ccc3[nH]2)cs1 (centres unmarked) [compound 121, 2-[1-(2-Ethyl-thiazol-4-ylmethyl)-piperidin-2-yl]-5-fluoro-1H-benzo-imidazole]
35 | < 500 | Fc1ccc(CN2CCCC[C@@H]2c2cc3ccccc3[nH]2)cc1 [compound 125, 2-[(R)-1-(4-Fluoro-benzyl)-piperidin-2-yl]-1H-indole]
36 | < 500 | Cc1cc2nc(C3CCCCN3Cc3cccc(C(F)(F)F)c3)[nH]c2cc1Cl (centres unmarked) [compound 126]
37 | < 500 | Cc1ccc(CN2CCCCC2c2nc3cc(Cl)cnc3[nH]2)cc1C (centres unmarked) [compound 128, 6-Chloro-2-[1-(3,4-dimethyl-benzyl)-piperidin-2-yl]-3H-imidazo[4,5-b]pyridine]
38 | < 500 | Cc1cccc(CN2CCCCC2c2nc3ccc(S(N)(=O)=O)cc3[nH]2)c1 (centres unmarked) [compound 129, 2-[1-(3-Methyl-benzyl)-piperidin-2-yl]-3H-benzo-imidazole-5-sulfonic acid amide]
39 | < 500 | Fc1ccc(CN2CCCCC2c2nc3cccnc3[nH]2)cc1 (centres unmarked) [compound 130, 2-[1-(4-Fluoro-benzyl)-piperidin-2-yl]-3H-imidazo[4,5-b]pyridine]
40 | < 500 | Cc1ccc(CN2CCCCC2c2nc3nccnc3[nH]2)cc1C (centres unmarked) [compound 134, 2-[1-(3,4-Dimethyl-benzyl)-piperidin-2-yl]-1H-imidazo[4,5-b]pyrazine]
41 | < 500 | Fc1ccc(CN2CCCC[C@@H]2c2cc3cc(F)ccc3[nH]2)cc1 [compound 136, 5-Fluoro-2-[(R)-1-(4-fluoro-benzyl)-piperidin-2-yl]-1H-indole]
